{
  "source": "patent US11259516B2",
  "about": "“Method and apparatus for capsular delivery to plants” (priority 2017, dated 2022)",
  "key": {"Acer negudo (Box elder)": {"test_system": "Acer negudo (Box elder)", "design": "key: X indicates that the given herbicide is suitable for controlling the given weed", "details": "cited from earlier work"}, "[1]": {"test_system": "Ligustrum lucidum (Broad leaf privet)", "design": "key: X indicates that the given herbicide is suitable for controlling the given weed", "details": "cited from earlier work"}, "[2]": {"test_system": "Koelreuteria elegans (Golden rain tree)", "design": "key: X indicates that the given herbicide is suitable for controlling the given weed", "details": "cited from earlier work"}, "[3]": {"test_system": "Cestrum parqui (Green cestrum)", "design": "key: X indicates that the given herbicide is suitable for controlling the given weed", "details": "cited from earlier work"}, "[4]": {"test_system": "Miconia calvescens (Velvet tree)", "design": "key: X indicates that the given herbicide is suitable for controlling the given weed", "details": "cited from earlier work"}, "[5]": {"test_system": "Eucalyptus saligna (Sydney Blue Gum)", "test": "Case 2: thinning of plantation grown Eucalyptus saligna with Di-Bak G, field trial", "type": "in vivo", "details": "at four months, on average a capsule every 13-14 cm of stem circumference", "protocol": "Generally, one capsule was inserted per 10 cm stem circumference.\nTree health was assessed on a 0-4 scale, 0 being dead and 4 being healthy. Observations were made for evidence of ‘flashback’ in nearby untreated trees.\nA trial was established on Brooklyn Station, Upper Tooloom, near Urbenville on 25 May 2017. GPS co-ordinates of the first treated plot were S28° 32.486′ E152° 24.782′. […] Trees were 6-10 m tall. Desirable trees were marked and the other trees were treated.\nThe trial consisted of four replicates with 15 trees per replicate. The number of capsules applied to each tree was dependent on tree circumference which was measured at chest height. The tree circumferences range was from 18 to 57 cm. Tree health was assessed at 4 months (25 Aug. 2017) and 7 months (20 Dec. 2017). Samples were collected for observation of dissolution of capsule and herbicide. Rainfall data for the closest recording station (Urbenville) was taken from the Bureau of Meteorology (BOM) internet site. No recent temperature data records were available for this site."}, "Acacia spp (Wattles)": {"test_system": "Acacia spp (Wattles)", "design": "key: X indicates that the given herbicide is suitable for controlling the given weed", "details": "cited from earlier work"}, "[6]": {"test_system": "Rubus anglocandicans (Blackberry)", "design": "key: X indicates that the given herbicide is suitable for controlling the given weed", "details": "cited from earlier work"}, "[7]": {"test_system": "Senna pendula (Winter senna)", "design": "key: X indicates that the given herbicide is suitable for controlling the given weed", "details": "cited from earlier work"}, "[8]": {"test_system": "Triadica sebifera (Chinese tallow tree)", "design": "key: X indicates that the given herbicide is suitable for controlling the given weed", "details": "cited from earlier work"}, "[9]": {"test_system": "Tabebuia aurea (Tabebuia)", "design": "key: X indicates that the given herbicide is suitable for controlling the given weed", "details": "cited from earlier work"}, "[10]": {"test_system": "western white gum (Eucalyptus argophloia)", "test": "Example 2: glyphosate and hexazinone capsules, thinning trial in western white gum plantation", "details": "Eucalyptus argophloia", "protocol": "The trial for this example was established at the HQP plantation near Jandowae on 6 Feb. 2018. The trees were planted in rows 4 m apart at 1.5 m spacing. Trees were 6-10 m tall. Trees to be maintained were marked and the other trees were treated.\nFour treatments were used, with capsules as follows:\nThe capsules used were HPMC Size 0 Natural TR.V700 colour cap and body Vcaps (Suzhou Capsugel® Ltd, China). Capsules were hand packed using a Capsugel Profiller apparatus (https://www.capsugel.com/biopharmaceutical-products/profiller). An embodiment of apparatus 10 adapted to include handle 2201 (FIG. 17) was used to drill a hole into the stem, insert the herbicide capsule and seal with a wooden plug.\nHerbicide capsules were applied to approximately 10 trees for each of the treatments. The number of capsules applied to each tree was independent of tree circumference which was measured at chest height. The tree circumferences range was from 20 to 34 centimetres. At 4 weeks, a small sample of trees were cut down with a chainsaw and cross-sections of stems containing the sites of insertion of the herbicide capsules removed. These stem pieces were returned to the laboratory and split open longitudinally through the insertion point. Tree health was assessed at 11 weeks (24 Apr. 2018) on a 0-4 scale with 0 being dead and 4 being healthy. Observations were made for evidence of flashback in untreated trees."}, "[11]": {"test_system": "Cinnamonum camphora (Camphor laurel)", "design": "key: X indicates that the given herbicide is suitable for controlling the given weed", "details": "cited from earlier work"}, "[12]": {"test_system": "Harungana madagarcariensis (Harungana)", "design": "key: X indicates that the given herbicide is suitable for controlling the given weed", "details": "cited from earlier work"}, "[13]": {"test_system": "Schinus terebinthifolius (Broad-leafed pepper tree)", "design": "key: X indicates that the given herbicide is suitable for controlling the given weed", "details": "cited from earlier work"}, "Populus spp (Poplars)": {"test_system": "Populus spp (Poplars)", "design": "key: X indicates that the given herbicide is suitable for controlling the given weed", "details": "cited from earlier work"}},
  "data": [
    {"smiles": "O=C(O)CNCP(=O)(O)O", "note": "[Glyphosate]", "values": [
      {"measurement": "suitability of herbicide for control of weed", "setting": "Acer negudo (Box elder)", "result": "X"},
      {"measurement": "suitability of herbicide for control of weed", "setting": "[1]", "result": "X"},
      {"measurement": "suitability of herbicide for control of weed", "setting": "[2]", "result": "X"},
      {"measurement": "suitability of herbicide for control of weed", "setting": "[3]", "result": "X"},
      {"measurement": "suitability of herbicide for control of weed", "setting": "[4]", "result": "X"},
      {"measurement": "mortality", "setting": "[5]", "result": "over 90%"},
      {"measurement": "suitability of herbicide for control of weed", "setting": "Acacia spp (Wattles)", "result": "X"},
      {"measurement": "suitability of herbicide for control of weed", "setting": "[6]", "result": "X"},
      {"measurement": "suitability of herbicide for control of weed", "setting": "[7]", "result": "X"},
      {"measurement": "suitability of herbicide for control of weed", "setting": "[8]", "result": "X"},
      {"measurement": "suitability of herbicide for control of weed", "setting": "[9]", "result": "X"},
      {"measurement": "flashback in the trees marked for retention", "setting": "[10]; 11 week assessment", "result": "no flashback was observed"},
      {"measurement": "trees died / killed (health rating 0-4 scale, 0 dead)", "setting": "[10]; 11 weeks post treatment, 1 or 2 capsules per tree", "result": "majority of trees"},
      {"measurement": "suitability of herbicide for control of weed", "setting": "[11]", "result": "X"},
      {"measurement": "suitability of herbicide for control of weed", "setting": "[12]", "result": "X"},
      {"measurement": "suitability of herbicide for control of weed", "setting": "[13]", "result": "X"},
      {"measurement": "suitability of herbicide for control of weed", "setting": "Populus spp (Poplars)", "result": "X"}
    ]}
  ]
}
